Results taken from US20200255492A1, “LEPTIN PEPTIDES AND THEIR USE FOR TREATING NEUROLOGICAL DISORDERS” (UNIVERSITY OF DUNDEE, priority 2017, published 2020).

Columns and labels:
[1] = tested on: GluA1 surface expression in cultured hippocampal neurons; experiment: Surface labelling of AMPA receptor subunit GluA1 (immunocytochemistry); type: cell-based, Sprague Dawley rats; conditions: for surface GluA1 expression: 50 nM, 15 min; for GluA1 staining in the presence of bpV: bpV plus leptin or leptin (116-130); for GluA1 surface expression in the presence of Aβ1-42: leptin peptide 10 nM plus Aβ1-42; for GluA1 surface expression, low concentration alone: 10 nM
Procedure: Hippocampal cultures were prepared from neonatal Sprague Dawley rats as before (O'Malley et al. 2007). Briefly, neonatal Sprague Dawley rats (1-3 days old) were killed by cervical dislocation in accordance with Schedule 1 of the United Kingdom Government Animals (Scientific Procedures) Act, 1986 and the hippocampi removed. After washing in HEPES buffered saline (HBS) comprising (mM): NaCl 135; KCl 5; CaCl2 1; MgCl2 1; HEPES 10; D-glucose 25 at pH 7.4; cells were treated with protease Type X and Type XIV (0.5 mg/ml; Sigma) for 25 min at room temperature. Dissociated cells were plated onto sterile dishes (Falcon 3001) treated with poly-1-lysine (20 μg/ml; 1-2 h) and maintained in MEM with serum replacement-2 (Sigma) in a humidified atmosphere of 5% CO2 and […] at 37° C. for up to 3 weeks.
To monitor GluA1 surface expression, immunocytochemistry was performed on hippocampal cultures (7-14 DIV) as before (Moult et al. 2010). Neurons were treated with agents for 20 min at room temperature (20-22° C.) before incubation with an antibody against an N-terminal region of GluA1 (sheep anti-GluR1; in house antibody against synthetic peptide (RTSDSRDHTRVDWKR) corresponding to 253-267 residues of GluR1; 1:100; Moult et al. 2010) at 4° C. Neurons were then fixed with 4% paraformaldehyde (5 min) before adding an appropriate fluorescently labelled secondary.
Trafficking of AMPA receptors to and away from synapses is crucial for various forms of activity-dependent synaptic plasticity (Collingridge et al. 2004). Our studies indicate that leptin regulates AMPA receptor trafficking as leptin promotes trafficking of GluA1 to hippocampal synapses (Moult et al. 2010). Moreover the ability of leptin to induce LTP in adult hippocampus requires the delivery of GluA1 to synapses by leptin (Moult et al. 2010). Thus, to assess if the leptin fragments also influence AMPA receptor trafficking processes, the surface expression of GluA1 was assayed in cultured hippocampal neurons (Moult et al. 2010). In agreement with previous studies, application of leptin (50 nM; 15 min) increased surface GluA1 expression to 184±7%; (n=36; P<0.001; FIG. 2C,D) compared with control hippocampal neurons. Similarly GluA1 surface expression was elevated (to 160±6% of control; n=36; P<0.001) after exposure to 50 nM leptin (116-130; FIG. 2C,D), whereas GluA1 surface expression (98±4% of control; n=36; P>0.05) was not altered after treatment with 50 nM leptin (22-56).

[2] = tested on: differentiated human neural cells (SH-SY5Y); experiment: LDH release assay (membrane leakage, cell death); type: cell-based; conditions: for reduction of LDH release in Aβ1-42 treated cells: n=5; for reduction of LDH release compared with CuCl2 alone: 5 μM CuCl2; for reduction of LDH release compared with Aβ1-42 alone, hexamer study: n=11
Procedure: (§1) The human neuroblastoma cell line, SH-SY5Y (ECACC, UK) was maintained in Dulbecco's Modified Eagle Medium supplemented with glucose ([…]) and 10% (v/v) cosmic calf serum (Fisher Scientific, UK) at 37° C. in a humidified atmosphere of 5% CO2, 95% air and allowed to reach 70-80% confluence before seeding. Cells (passage 10-18) were plated at 10 000 cells per well in 96 well tissue culture plates (Nunc, VWR, UK) and at a density of 2×10^5 cells in 35 mm dishes for protein extraction. To induce differentiation, cells were cultured in DMEM supplemented with glucose ([…]), 1% (v/v) cosmic calf serum and 10 μM retinoic acid for 5 days. Thereafter they were incubated in DMEM supplemented with glucose ([…]), serum replacement 2 (2%; Sigma, UK) and 18 μM 5-fluorodeoxyuridine to inhibit proliferation of undifferentiated cells. The 50% of the medium was changed every 2-3 days and pharmacological treatment was carried out 7 days after switching to this medium. Reagents used were (from Sigma UK unless stated) 0.1-10 nM human leptin and leptin (116-130); 0.1-10 nM leptin (22-56; Bachem; Switzerland); 10 nM leptin (116-121) leptin (117-122), leptin (124-129) or leptin (125-130; all Severn Biotech, UK); 5 μM copper chloride; […], 5 μM WP1066 or 50 nM wortmannin. All treatments were added to the culture at the same time and survival assays were carried out after 96 h treatment. Protein samples for signaling ELISA were extracted 3 h after exposure to the relevant reagents and for biomarker expression after 72 hours.
(§2) The concentration of lactate dehydrogenase (LDH) in the culture medium or the mitochondrial activity within cells was used to monitor the level of cell death, as previously (Oldreive and Doherty 2010). In certain experiments, a Crystal violet assay was used to assess total cell number. Cells were fixed in neutral buffered formalin and washed 3 times in PBS prior to staining with 0.01% crystal violet acetate for 5 min. Plates were washed 5-10 times in dH2O and cells solubilised in 100 μl dimethyl sulfoxide (DMSO) before reading the absorbance on a Biohit BP100 plate reader. For all assays, data is expressed as percentage relative to control, untreated wells to normalize for differences in plating density between individual experiments.
To determine whether leptin (116-130) has neuroprotective actions, the effects of leptin (116-130) on the viability of differentiated human neural cells (SH-SY5Y) was examined after exposure to either 5 μM CuCl2 or 10 μM Aβ1-42. Cells were treated with the toxin alone or with a range of concentrations (10-0.1 nM) of leptin or leptin (116-130). […] Thus like leptin, treatment with leptin (116-130) reduces neuronal death in response to AD-linked toxins in vitro.

[3] = tested on: differentiated SH-SY5Y human neuronal cells; experiment: MTT assay of mitochondrial activity (cell viability); type: cell-based; conditions: 10 nM; n=11
Procedure: as §1, §2
To confirm the findings of the LDH assay, cells were treated with Aβ1-42 alone or with a 10 nM of leptin, leptin (116-130) or the listed hexamers, and mitochondrial activity, as a measure of cell viability, determined by MTT assay. A significant increase in mitochondrial activity was detected following treatment with either leptin or leptin (116-130; both 10 nM). […] Thus for Aβ1-42-treated cells, 10 nM leptin and 10 nM leptin (116-130) increased mitochondrial activity by 32.6±5.2% and 40.9+5.8% respectively compared with Aβ1-42 alone (n=11; P<0.001; FIG. 11B); an effect that was mirrored by 10 nM leptin (116-121) and leptin (117-122); 43.61±3.9% and 40.5±3.7*% (n=11; P<0.001; FIG. 11B), but not by 10 nM leptin (124-129) or leptin (125-130) (n=11; P>0.5; FIG. 11B). This reinforces the findings from the LDH assay that similar to either leptin or leptin (116-130), treatment with leptin (116-121) or leptin (117-122) reduces neuronal death in response to AD-linked toxins in vitro.

“SCSLPQTSGLQKPES (listed as Mus musculus) [leptin (116-130)]” was tested, and the “surface GluA1 expression” value [1] was 160±6 % of control, the “GluA1 staining in the presence of bpV” value [1] was 148±8.1 % of control and the “GluA1 surface expression in the presence of Aβ1-42” value [1] was 97±4 % of control. The “reduction of LDH release in Aβ1-42 treated cells” value ([2]; 0.1 nM, 10 μM Aβ1-42) was 26.7±17.3%, the “reduction of LDH release compared with CuCl2 alone” value ([2]; 10 nM) was 45.6±2.92% and the “reduction of LDH release in Aβ1-42 treated cells” value ([2]; 10 nM, 10 μM Aβ1-42) was 46.6±9%. The “reduction of LDH release compared with Aβ1-42 alone, hexamer study” value (“reduction of LDH release … hexamer study” below) ([2]; 10 nM, 10 μM Aβ1-42) was 24.0 ± 2.2%, the “increase in LDH release with PI3-kinase inhibitor” value ([2]; leptin (116-130) and Aβ1-42-treated cells plus wortmannin (50 nM)) was 26.9±9.8% and the “increase in LDH release with STAT3 inhibitor” value ([2]; leptin (116-130) and Aβ1-42-treated cultures plus WP1066 (5 μM)) was 18.3±3.2%. For the same substance, the “increase in mitochondrial activity compared with Aβ1-42 alone” value (“increase in mitochondrial activity” for short) [3] was 40.9 ± 5.8%.
For “CSLPQT (listed as Mus musculus) [leptin (117-122)]”, the “reduction of LDH release … hexamer study” value ([2]; 10 nM, 10 μM Aβ1-42) was 27.4±3.5% and the “increase in mitochondrial activity” value [3] was 40.5±3.7%.
With “SCSLPQ (listed as Mus musculus) [leptin (116-121)]” the “reduction of LDH release … hexamer study” value ([2]; 10 nM, 10 μM Aβ1-42) was 27.1±3.1% and the “increase in mitochondrial activity” value [3] was 43.61±3.9%.
For “leptin (22-56): leptin fragment amino acids 22-56 (Bachem), comparison fragment (VPIQKVQDDTKTLIKTIVTRINDISHTQSVSSKQK; UniProt P41159 22-56, looked up, fragment) [reference compound]”, the “GluA1 surface expression, low concentration alone” value [1] was “no significant effect on GluA1 trafficking per se”, the “surface GluA1 expression” value [1] was 98±4 % of control and the “GluA1 surface expression in the presence of Aβ1-42” value [1] was 51±2 % of control.
For “leptin: the metabolic hormone leptin, whole (full length) leptin molecule; human leptin from Sigma in SH-SY5Y work”, the “GluA1 surface expression, low concentration alone” value [1] was 113±7 % of control, the “surface GluA1 expression” value [1] was 184±7 % of control and the “GluA1 staining in the presence of bpV” value [1] was 131±6.6 % of control. The “GluA1 surface expression in the presence of Aβ1-42” value [1] was 101±4 % of control, the “reduction of LDH release in Aβ1-42 treated cells” value ([2]; 0.1 nM, 10 μM Aβ1-42) was 31.8±13.2% and the “reduction of LDH release compared with CuCl2 alone” value ([2]; 10 nM) was 39.5±2.73%. The “reduction of LDH release in Aβ1-42 treated cells” value ([2]; 10 nM, 10 μM Aβ1-42) was 47.9±7.45%, the “reduction of LDH release … hexamer study” value ([2]; 10 nM, 10 μM Aβ1-42) was 25.3±2.5% and the “increase in mitochondrial activity” value [3] was 32.6±5.2%.
In the case of “Aβ1-42: amyloid beta 1-42, toxin used in the AD models [reference compound]”, the “GluA1 surface expression, Aβ1-42 alone” value ([1]; 500 nM, 20 min, control Aβ42-1-treated neurons) is reported as 70±2 % of control and the “increase in LDH release, Aβ1-42 alone” value ([2]; 10 μM Aβ1-42) is reported as 26.7±4.4%.
